# “And” between values parts separate entries of the source, which are not always exact repeats. Equal entries are not always repeated. Structures can show the parent of a compound that is named as a salt. Where two headings read alike, the source gives them in different places.
# What was measured:
# [1] = tested on: fibrin- and LPS-induced microglia activation; assay: cells; assay type: cell-based, rat
# [2] = tested on: LPS-induced microglia activation; assay: Image-based assay of LPS-induced microglia activation (HTS and dose response); assay type: cell-based, rat
# primary rat microglia [3] = tested on: primary rat microglia
# [4] = tested on: fibrin-induced microglia activation; assay: Image-based assay of fibrin-induced microglia activation (HTS and dose response); assay type: cell-based, rat; settings: for inhibition at 10 µM: read-out: Fibrin % inhibition
# primary rat microglia [5] = assay: Cell toxicity (dead cells, size <150 μm2) in coated fibrin (cFib) assay; settings: for Fibrin % cell toxicity: primary microglia HTS;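 on Fibrin % cell toxicity: share of dead cells sized under 150 µm2 at 10 µM in fibrin-stimulated microglia HTS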
# [6] = HTS of 1907 compounds, quadrant by fibrin and LPS inhibition
# [7] = Rattus norvegicus, Microglia, primary microglia HTS, 10 μM, LPS-stimulated, cell size >800 μm^2 as marker of activation; read-out: LPS % inhibition
# [8] = quadrant by fibrin and LPS inhibition, HTS at 10 μM
# [9] = Rattus norvegicus, Microglia, primary microglia HTS, fibrin stimulation, compounds at 10 μM
# [10] = Rattus norvegicus, Microglia, primary microglia HTS, LPS stimulation, compounds at 10 μM; read-out: LPS % inhibition
# [11] = primary microglia HTS, LPS stimulation, compounds at 10 μM; 10 µM
# [12] = classification by fibrin and LPS inhibition, HTS at 10 μM
# [13] = Rattus norvegicus, Microglia, read-out: LPS % inhibition
# [14] = Rattus norvegicus, Microglia, 48 h, read-out: LPS % inhibition
# [15] = quadrant by fibrin and LPS inhibition in HTS of 1907 compounds
# [16] = Rattus norvegicus, Microglia, primary microglia HTS, fibrin stimulation, activation = cell size >800 μm2
# [17] = Rattus norvegicus, Microglia, 48 h, primary microglia HTS, LPS stimulation, activation = cell size >800 μm2; read-out: LPS % inhibition
# [18] = Rattus norvegicus, Microglia, primary HTS, 10 μM, fibrin-stimulated primary microglia
# [19] = Rattus norvegicus, Microglia, primary HTS, 10 μM, LPS-stimulated primary microglia; read-out: LPS % inhibition
# [20] = Rattus norvegicus, Microglia, primary microglia HTS, fibrin stimulation, increased cell size (>800 μm^2) as marker of activation
smiles,measurement,setting,value
CCCc1nc(C)c2c(=O)[nH]c(-c3cc(S(=O)(=O)N4CCN(CC)CC4)ccc3OCC)nn12 [Vardenafil],Quadrant (FIG. 5b),[1]; [6],Q4
same,inhibition at 10 µM,[2]; [7],12%
same,LPS % inhibition,"[2]; primary microglia HTS, 10 μM, LPS-stimulated, cell size >800 μm^2 as marker of activation",13%
same,LPS % cell toxicity,primary rat microglia [3]; rat,0%
CCN1CCN(C(=O)N[C@@H](C(=O)N[C@@H]2C(=O)N3[C@@H]2SC(C)(C)[C@@H]3C(=O)O)c2ccccc2)C(=O)C1=O [Piperacillin],Quadrant (FIG. 5b),[1]; [8],Q2
same,inhibition at 10 µM,[4]; [9],103%
same,inhibition at 10 µM,[2]; [10],80%
same,LPS % cell toxicity,primary rat microglia [3]; rat,2%
CC(=O)N[C@@H](CS)C(=O)O [Acetylcysteine],Quadrant (FIG. 5b),[1]; [8],Q4
same,inhibition at 10 µM,[2]; [10],7%
same,LPS % inhibition,[2]; [11],13%
same,LPS % cell toxicity,primary rat microglia [3]; rat,0%
CN(C)c1nc(N(C)C)nc(N(C)C)n1 [Altretamine],Quadrant (FIG. 5b),[1]; [8],Q4
same,inhibition at 10 µM,[4]; [9],-29%
same,inhibition at 10 µM,[2]; [10],16%
same,LPS % cell toxicity,primary rat microglia [3]; rat,0%
"CC[C@H]1CN2CCc3cc(OC)c(OC)cc3[C@@H]2C[C@@H]1C[C@H]1NCCc2cc(OC)c(OC)cc21 [Emetine, Emetine Dihydrochloride]",Quadrant (FIG. 5b),[1],Q2
same,Fibrin % inhibition,[4],117%
same,LPS % inhibition,[2],115%
same,LPS % cell toxicity,primary rat microglia [3],46%
C[C@H](N[C@@H](CCc1ccccc1)C(=O)O)C(=O)N1CCC[C@H]1C(=O)O [Enalaprilat],Quadrant (FIG. 5b),[1]; [12],Q4
same,Fibrin % inhibition,"[4]; primary microglia HTS, fibrin stimulation, compounds at 10 μM",25%
same,LPS % inhibition,"[2]; primary microglia HTS, LPS stimulation, compounds at 10 μM",18%
same,LPS % cell toxicity,primary rat microglia [3],0%
CCc1cc(C(N)=S)ccn1 [Ethionamide],Quadrant (FIG. 5b),[1],Q4
same,inhibition at 10 µM,"[4]; Rattus norvegicus, Microglia",17%
same,inhibition at 10 µM,[2]; [13],14%
same,LPS % cell toxicity,primary rat microglia [3]; rat,0%
C[C@@H](c1ncncc1F)[C@](O)(Cn1cncn1)c1ccc(F)cc1F [Voriconazole],Quadrant (FIG. 5b),[1]; [6],Q4
same,inhibition at 10 µM,"[4]; Rattus norvegicus, Microglia, primary microglia HTS, 10 μM, fibrin-stimulated, cell size >800 μm^2 as marker of activation",-42%
same,inhibition at 10 µM,[2]; [7],5%
same,LPS % cell toxicity,primary rat microglia [3]; rat,0%
NCCS(=O)(=O)O [2-Aminoethanesulfonic Acid],Quadrant (FIG. 5b),[1]; [8],Q4
same,inhibition at 10 µM,[4]; [9],-13%
same,inhibition at 10 µM,[2]; [10],19%
same,LPS % cell toxicity,primary rat microglia [3]; rat,0%
NCCc1c[nH]cn1 [Histamine],Quadrant (FIG. 5b),[1],Q4
same,inhibition at 10 µM,"[4]; Rattus norvegicus, Microglia",21%
same,inhibition at 10 µM,[2]; [14],27%
same,LPS % cell toxicity,primary rat microglia [3]; rat,0%
COCCCC/C(=N\OCCN)c1ccc(C(F)(F)F)cc1 [Fluvoxamine],Quadrant (FIG. 5b),[1]; [15],Q4
same,inhibition at 10 µM,[4]; [16],-8%
same,inhibition at 10 µM,[2]; [17],-3%
same,LPS % cell toxicity,primary rat microglia [3]; rat,0%
CC(C)=CCc1c2c(c3occ(-c4ccc(O)c(O)c4)c(=O)c3c1O)C=CC(C)(C)O2 [pomiferin],IC50,"[4]; Rattus norvegicus, Microglia, Table 7, read-out: fib_IC50",251 nM
same,IC50,"primary rat microglia [5]; Rattus norvegicus, Microglia, read-out: dead_IC50 (uM), Table 7, fibrin or LPS assay not specified",3.45 µM
same,IC50,"[2]; Rattus norvegicus, Microglia, Table 7; read-out: LPS_IC50",123 nM
O=C(N[C@H](CO)[C@H](O)c1ccc([N+](=O)[O-])cc1)C(Cl)Cl [Chloramphenicol],Quadrant (FIG. 5b),"[1]; primary HTS, 10 μM",Q4
same,inhibition at 10 µM,[4]; [18],19%
same,inhibition at 10 µM,[2]; [19],6%
same,LPS % cell toxicity,primary rat microglia [3]; rat,0%
O=C(CCCN1CCC(O)(c2ccc(Br)cc2)CC1)c1ccc(F)cc1 [Bromperidol],Quadrant (FIG. 5b),"[1]; primary HTS, 10 μM",Q4
same,inhibition at 10 µM,[4]; [18],-6%
same,inhibition at 10 µM,[2]; [19],7%
same,LPS % cell toxicity,primary rat microglia [3]; rat,0%
CNCC(O)c1ccc(O)c(O)c1 (centres unmarked) [Racepinephrine],Quadrant (FIG. 5b),[1],Q4
same,inhibition at 10 µM,"[4]; Rattus norvegicus, Microglia",27%
same,inhibition at 10 µM,[2]; [14],29%
same,LPS % cell toxicity,primary rat microglia [3]; rat,0%
CC(NC(C)(C)C)C(=O)c1cccc(Cl)c1.Cl (centres unmarked),Quadrant (FIG. 5b),[1],Q4
same,Fibrin % inhibition,[4]; 10 µM,−15%
same,LPS % inhibition,[2]; 10 µM,27%
same,LPS % cell toxicity,primary rat microglia [3],2%
Cc1ccc(O)c([C@H](CCN(C(C)C)C(C)C)c2ccccc2)c1 [Tolterodine],Quadrant (FIG. 5b),[1],Q4
same,inhibition at 10 µM,"[4]; Rattus norvegicus, Microglia",-36%
same,inhibition at 10 µM,[2]; [13],15%
same,LPS % cell toxicity,primary rat microglia [3]; rat,0%
COc1cc([C@@H]2c3cc4c(cc3[C@@H](O[C@@H]3O[C@@H]5CO[C@@H](C)O[C@H]5[C@H](O)[C@H]3O)[C@H]3COC(=O)[C@H]23)OCO4)cc(OC)c1O [Etoposide],Quadrant (FIG. 5b),[1]; [12],Q4
same,inhibition at 10 µM,[4]; [9],30%
same,inhibition at 10 µM,[2]; [10],15%
same,LPS % cell toxicity,primary rat microglia [3]; rat,0%
CCCN(CCC)CCc1cccc2c1CC(=O)N2 [Ropinirole],Quadrant (FIG. 5b),[1],Q4
same,inhibition at 10 µM,"[4]; Rattus norvegicus, Microglia",-26%
same,inhibition at 10 µM,[2]; [14],15%
same,LPS % cell toxicity,primary rat microglia [3]; rat,0%
CC(C)(CO)[C@@H](O)C(=O)NCCC(=O)O [Pantothenic Acid],Quadrant (FIG. 5b),[1]; [15],Q4
same,inhibition at 10 µM,[4]; [20],7%
same,inhibition at 10 µM,"[2]; Rattus norvegicus, Microglia, 48 h, primary microglia HTS, LPS stimulation; increased cell size (>800 μm^2) as marker of activation; read-out: LPS % inhibition",5%
same,LPS % cell toxicity,primary rat microglia [3]; rat,1%
Cc1nc2n(c(=O)c1CCN1CCC(c3noc4cc(F)ccc34)CC1)CCCC2 [Risperidone],Quadrant (FIG. 5b),[1],Q4
same,LPS % cell toxicity,primary rat microglia [3]; rat,0%
Cc1ncc(C[n+]2csc(CCO)c2C)c(N)n1 [Thiamine],Quadrant (FIG. 5b),[1],Q4
same,LPS % cell toxicity,primary rat microglia [3]; rat,0%
CC(C)NCC(O)COc1ccc(CCOCC2CC2)cc1 (centres unmarked) [Betaxolol],Quadrant (FIG. 5b),[1],Q4
same,LPS % cell toxicity,primary rat microglia [3]; rat,0%
Clc1ccc2c(c1)CCc1cccnc1C2=C1CCNCC1 [Desloratadine],Quadrant (FIG. 5b),[1],Q4
same,LPS % cell toxicity,primary rat microglia [3]; rat,0%
O=C(O)C(O)C(O)C(=O)O.OCc1cccnc1 (centres unmarked) [Nicotinyl Alcohol Tartrate],Quadrant (FIG. 5b),[1]; [15],Q4
same,LPS % cell toxicity,primary rat microglia [3]; rat,0%
CNCCCC12CCC(c3ccccc31)c1ccccc12 [Maprotiline],Fibrin % inhibition,[4],−4%
same,LPS % inhibition,[2],78%
same,LPS % cell toxicity,primary rat microglia [3]; rat,2%
COc1cc2ncnc(Nc3ccc(F)c(Cl)c3)c2cc1OCCCN1CCOCC1 [Gefitinib],Quadrant (FIG. 5b),[1],Q4
same,LPS % cell toxicity,primary rat microglia [3]; rat,0%
Cn1nnc2c(C(N)=O)ncn2c1=O [Temozolomide],Quadrant (FIG. 5b),[1]; [6],Q4
same,Fibrin % inhibition,"[4]; primary microglia HTS, 10 μM, fibrin-stimulated, cell size >800 μm^2 as marker of activation",−31% and −26%
same,LPS % cell toxicity,primary rat microglia [3]; rat,0%
CN(C)CCCN1c2ccccc2Sc2ccc(C(F)(F)F)cc21 [Triflupromazine],LPS % cell toxicity,primary rat microglia [3]; rat,1%
CC#C[C@]1(O)CC[C@H]2[C@@H]3CCC4=CC(=O)CCC4=C3[C@@H](c3ccc(N(C)C)cc3)C[C@@]21C [Mifepristone],Quadrant (FIG. 5b),[1]; [15],Q4
same,inhibition at 10 µM,[4]; [20],12%
same,LPS % cell toxicity,primary rat microglia [3]; rat,0%
CN1C[C@H](C(=O)N[C@]2(C)O[C@@]3(O)[C@@H]4CCCN4C(=O)[C@H](Cc4ccccc4)N3C2=O)C[C@@H]2c3cccc4[nH]cc(c34)C[C@H]21 [Dihydroergotamine],Quadrant (FIG. 5b),[1]; [12],Q4
same,Fibrin % inhibition,"[4]; primary microglia HTS, fibrin stimulation, compounds at 10 μM, 10 µM",7% and −3%
same,Fibrin % cell toxicity,"primary rat microglia [5]; fibrin assay, dead cells (size <150 μm2), compounds at 10 μM",1% and 0%
same,inhibition at 10 µM,[2]; [10],39%
same,LPS % inhibition,[2]; [11],22%
CN1CCN(CCCN2c3ccccc3Sc3ccc(Cl)cc32)CC1 [Prochlorperazine],inhibition at 10 µM,"[4]; Rattus norvegicus, Microglia",6%
same,inhibition at 10 µM,[2]; [14],17%
same,LPS % cell toxicity,primary rat microglia [3]; rat,1%
CC(C)NCC(O)COc1cccc2ccccc12 (centres unmarked) [1-(Isopropylamino)-3-(1-Naphthyloxy)-2-Propanol],LPS % cell toxicity,primary rat microglia [3]; rat,0%
O=C1CCc2ccc(OCCCCN3CCN(c4cccc(Cl)c4Cl)CC3)cc2N1 [Aripiprazole],Quadrant (FIG. 5b),[1],Q4
same,LPS % cell toxicity,primary rat microglia [3]; rat,0%
CCN(CC)C(=O)N[C@H]1C=C2c3cccc4[nH]cc(c34)C[C@H]2N(C)C1 [Lisuride],Quadrant (FIG. 5b),[1],Q4
same,LPS % cell toxicity,primary rat microglia [3]; rat,0%
NC12CC3CC(CC(C3)C1)C2 [Amantadine],Quadrant (FIG. 5b),[1]; [8],Q4
same,LPS % inhibition,[2]; [11],3% and −5%
same,LPS % cell toxicity,primary rat microglia [3]; rat,0%
C[C@]12CC[C@@H]3c4ccc(O)cc4CC[C@H]3[C@@H]1CC[C@@H]2O [Estradiol],Quadrant (FIG. 5b),[1]; [12],Q4
same,LPS % cell toxicity,primary rat microglia [3]; rat,0%
CCC(=O)c1c(O)cc(O)cc1O [Flopropione],Quadrant (FIG. 5b),[1]; [15],Q4
same,inhibition at 10 µM,[4]; [16],-35%
same,Fibrin % cell toxicity,"primary rat microglia [5]; fibrin stimulation, toxicity = cell size <150 μm2",1%
same,inhibition at 10 µM,[2]; [17],10%
CC(N)C12CC3CC(CC(C3)C1)C2 (centres unmarked) [Rimantadine],Quadrant (FIG. 5b),[1]; classification by fibrin and LPS inhibition in HTS,Q4
same,Quadrant (FIG. 5b),[1]; [8],Q2
same,inhibition at 10 µM,"[4]; Rattus norvegicus, Microglia, primary microglia HTS, fibrin stimulation, cell size >800 μm2 as marker of activation",-19%
same,inhibition at 10 µM,[4]; [9],106%
same,Fibrin % cell toxicity,"primary rat microglia [5]; fibrin assay, dead cells (size <150 μm2)",93%
same,Fibrin % cell toxicity,"primary rat microglia [5]; fibrin stimulation, cell size <150 μm2 as marker of toxicity",0%
same,inhibition at 10 µM,"[2]; Rattus norvegicus, Microglia, 48 h; read-out: LPS % inhibition",2%
same,inhibition at 10 µM,[2]; [10],106%

# Reference: patent US20210330611A1, “THERAPY FOR NEUROLOGICAL DISEASES/DISORDERS” (priority 2020, published 2021)
